# Measured values from publication PMC12802961 (Journal of Antimicrobial Chemotherapy, 2025).
# Values joined by “and” are separate entries in the source; they are usually repeats but may differ in a detail not shown here. Identical values can stand only once.
# How the values were obtained:
# E. coli 52 [1] = test: Checkerboard broth microdilution MIC of cefepime alone and with taniborbactam; assay type: cell-based, Escherichia coli; settings: ESBL-producing E. coli; in vitro checkerboard
# Source text: (§1) Four previously well-characterized cefepime-resistant isolates, namely one ESBL-producing E. coli, one ESBL-producing K. pneumoniae and two P. aeruginosa (one VIM- and one AmpC constitutively -producing), were used.
# K. pneumoniae 59 = test: as above; assay type: cell-based, Klebsiella pneumoniae; settings: ESBL-producing K. pneumoniae; in vitro checkerboard
# Source text: as §1
# [2] = Protein binding, equilibrium dialysis chamber, LC-MS/MS; assay type: in vitro ADME
# Source text: […]. […] […].
# (§2) . […] Free drug concentrations were used in all calculations. […]
# E. coli 52 [3] = test: Neutropenic murine thigh infection model; assay type: in vivo, Escherichia coli
# Procedure: (§3) All dosing regimens were performed in at least two animals per dosing regimen.
# (§4) At t = 0 h, 2 h after infection, two mice were humanely euthanized to determine the initial number of cfu/thigh just before treatment. […] Subsequently, thighs were homogenized using the Ultra-Turrax homogenizer (IKA Labortechnik, Germany). For each thigh 10-fold dilution series were prepared and 3 × 10 µL per dilution were plated (Chromagar, bioMérieux, NL). The following day, colonies were counted and the number of cfu/thigh was calculated.
# (§5) Free drug concentrations were used in all calculations.
# P. aeruginosa 106 = test: Neutropenic murine thigh infection model; assay type: in vivo, Pseudomonas aeruginosa
# Procedure: as §3, §4, §5
# P. aeruginosa 132 = test: Neutropenic murine thigh infection model; assay type: in vivo, Pseudomonas aeruginosa
# Procedure: as §3, §4, §5
# [4] = tested on: ESBL-producing Enterobacterales; test: Neutropenic murine thigh infection model, Enterobacterales together; assay type: in vivo; settings: Ct where in vitro reversal of cefepime resistance was found
# Procedure: (§6) […]. […] […]. All dosing regimens were performed in at least two animals per dosing regimen.
# (§7) At t = 0 h, 2 h after infection, two mice were humanely euthanized to determine the initial number of cfu/thigh just before treatment. All other animals were euthanized at t = 24 h unless the welfare of the animals indicated earlier termination, following animal welfare regulations. Thighs were taken and moved to a pre-cooled 10 mL plastic tube (Transport Tube, Omnilabo, NL) containing 2 mL PBS (NaCl 8.00 g/L, Na2HPO4 * 2H2O 1.44 g/L, KH2PO4 0.26 g/L, pH 7.2–7.4). Subsequently, thighs were homogenized using the Ultra-Turrax homogenizer (IKA Labortechnik, Germany). For each thigh 10-fold dilution series were prepared and 3 × 10 µL per dilution were plated (Chromagar, bioMérieux, NL). The following day, colonies were counted and the number of cfu/thigh was calculated. The drug effect was then determined as the difference between the log10cfu/thigh values at t = 24 h and t = 0 h (mean value of two mice) expressed as Δlog10cfu, i.e. positive result for growth, zero for static effect and negative for reduction of inoculum (killing).
# as §2
# P. aeruginosa isolates = test: Neutropenic murine thigh infection model, P. aeruginosa isolates together; assay type: in vivo, Pseudomonas aeruginosa; settings: Ct where in vitro reversal of cefepime resistance was found
# Procedure: as §6, §7, §2
# [5] = in vivo
# [6] = tested on: AmpC constitutively-producing P. aeruginosa; settings: cited from earlier work
# [7] = tested on: MBL- and ESBL-producing isolates; settings: cited from earlier work
# [8] = human, in vivo; cited from earlier work
# [9] = + cefepime q2h 4 mg/kg, Ct 0.015 mg/L
# [10] = + cefepime q2h 4 mg/kg, Ct 0.03 mg/L
# [11] = + cefepime q2h 4 mg/kg, Ct 0.06 mg/L
# [12] = + cefepime q2h 4 mg/kg, Ct 0.125 mg/L
# [13] = + cefepime q2h 4 mg/kg, Ct 0.25 mg/L
# [14] = + cefepime q2h 4 mg/kg, Ct 0.5 mg/L
# [15] = + cefepime q2h 4 mg/kg, Ct 1 mg/L
# [16] = + cefepime q2h 4 mg/kg, Ct 2 mg/L
# [17] = + cefepime q2h 4 mg/kg, Ct 4 mg/L
# [18] = taniborbactam q2h + cefepime q2h 4 mg/kg
# [19] = + cefepime q2h 64 mg/kg, Ct 0.015 mg/L
# [20] = + cefepime q2h 64 mg/kg, Ct 0.03 mg/L
# [21] = + cefepime q2h 64 mg/kg, Ct 0.06 mg/L
# [22] = + cefepime q2h 64 mg/kg, Ct 0.125 mg/L
# [23] = + cefepime q2h 64 mg/kg, Ct 0.25 mg/L
# [24] = + cefepime q2h 64 mg/kg, Ct 0.5 mg/L
# [25] = + cefepime q2h 64 mg/kg, Ct 1 mg/L
# [26] = + cefepime q2h 64 mg/kg, Ct 2 mg/L
# [27] = + cefepime q2h 64 mg/kg, Ct 4 mg/L
# [28] = taniborbactam q2h + cefepime q2h 64 mg/kg
# [29] = + cefepime q2h 8 mg/kg, Ct 0.015 mg/L
# [30] = + cefepime q2h 8 mg/kg, Ct 0.03 mg/L
# [31] = + cefepime q2h 8 mg/kg, Ct 0.06 mg/L
# [32] = + cefepime q2h 8 mg/kg, Ct 0.125 mg/L
# [33] = + cefepime q2h 8 mg/kg, Ct 0.25 mg/L
# [34] = + cefepime q2h 8 mg/kg, Ct 0.5 mg/L
# [35] = + cefepime q2h 8 mg/kg, Ct 1 mg/L
# [36] = + cefepime q2h 8 mg/kg, Ct 2 mg/L
# [37] = + cefepime q2h 8 mg/kg, Ct 4 mg/L
# [38] = taniborbactam q2h + cefepime q2h 8 mg/kg
structure (smiles),measurement,setting,value
"NCCN[C@H]1CC[C@H](CC(=O)N[C@H]2Cc3cccc(C(=O)O)c3OB2O)CC1 [taniborbactam, Taniborbactam]",Taniborbactam concentration at which reversal of phenotypic resistance to cefepime was observed,E. coli 52 [1],≤ 0.03 mg/L
same,Taniborbactam concentration at which reversal of phenotypic resistance to cefepime was observed,K. pneumoniae 59,0.25 mg/L
same,Protein binding,[2],19.6%
same,1 log kill: Taniborbactam %ƒT > Ct 0.015 mg/L,E. coli 52 [3]; [9],100%
same,Stasis: Taniborbactam %ƒT > Ct 0.015 mg/L,E. coli 52 [3]; [9],70.24%
same,1 log kill: Taniborbactam %ƒT > Ct 0.03 mg/L,E. coli 52 [3]; [10],100%
same,Stasis: Taniborbactam %ƒT > Ct 0.03 mg/L,E. coli 52 [3]; [10],53.44%
same,1 log kill: Taniborbactam %ƒT > Ct 0.06 mg/L,E. coli 52 [3]; [11],99.7%
same,Stasis: Taniborbactam %ƒT > Ct 0.06 mg/L,E. coli 52 [3]; [11],36.6% and 36.55%
same,1 log kill: Taniborbactam %ƒT > Ct 0.125 mg/L,E. coli 52 [3]; [12],82.8% and 82.82%
same,Stasis: Taniborbactam %ƒT > Ct 0.125 mg/L,E. coli 52 [3]; [12],19.7% and 19.66%
same,1 log kill: Taniborbactam %ƒT > Ct 0.25 mg/L,E. coli 52 [3]; [13],65.92%
same,Stasis: Taniborbactam %ƒT > Ct 0.25 mg/L,E. coli 52 [3]; [13],2.74%
same,1 log kill: Taniborbactam %ƒT > Ct 0.5 mg/L,E. coli 52 [3]; [14],49.3%
same,Stasis: Taniborbactam %ƒT > Ct 0.5 mg/L,E. coli 52 [3]; [14],0%
same,1 log kill: Taniborbactam %ƒT > Ct 1 mg/L,E. coli 52 [3]; [15],32.14%
same,Stasis: Taniborbactam %ƒT > Ct 1 mg/L,E. coli 52 [3]; [15],0%
same,1 log kill: Taniborbactam %ƒT > Ct 2 mg/L,E. coli 52 [3]; [16],15.24%
same,Stasis: Taniborbactam %ƒT > Ct 2 mg/L,E. coli 52 [3]; [16],0%
same,1 log kill: Taniborbactam %ƒT > Ct 4 mg/L,E. coli 52 [3]; [17],0%
same,Stasis: Taniborbactam %ƒT > Ct 4 mg/L,E. coli 52 [3]; [17],0%
same,"1 log kill: Taniborbactam total daily dose, mg/kg",E. coli 52 [3]; [18],41.8 mg/kg
same,Stasis: Taniborbactam total daily dose,E. coli 52 [3]; [18],3.20 mg/kg
same,1 log kill: Taniborbactam %ƒT > Ct 0.015 mg/L,P. aeruginosa 106; [19],100%
same,Stasis: Taniborbactam %ƒT > Ct 0.015 mg/L,P. aeruginosa 106; [19],100%
same,1 log kill: Taniborbactam %ƒT > Ct 0.03 mg/L,P. aeruginosa 106; [20],100%
same,Stasis: Taniborbactam %ƒT > Ct 0.03 mg/L,P. aeruginosa 106; [20],100%
same,1 log kill: Taniborbactam %ƒT > Ct 0.06 mg/L,P. aeruginosa 106; [21],100%
same,Stasis: Taniborbactam %ƒT > Ct 0.06 mg/L,P. aeruginosa 106; [21],100%
same,1 log kill: Taniborbactam %ƒT > Ct 0.125 mg/L,P. aeruginosa 106; [22],100%
same,Stasis: Taniborbactam %ƒT > Ct 0.125 mg/L,P. aeruginosa 106; [22],100%
same,1 log kill: Taniborbactam %ƒT > Ct 0.25 mg/L,P. aeruginosa 106; [23],100%
same,Stasis: Taniborbactam %ƒT > Ct 0.25 mg/L,P. aeruginosa 106; [23],88.39%
same,1 log kill: Taniborbactam %ƒT > Ct 0.5 mg/L,P. aeruginosa 106; [24],96.5%
same,Stasis: Taniborbactam %ƒT > Ct 0.5 mg/L,P. aeruginosa 106; [24],71.5%
same,1 log kill: Taniborbactam %ƒT > Ct 1 mg/L,P. aeruginosa 106; [25],79.6% and 79.61%
same,Stasis: Taniborbactam %ƒT > Ct 1 mg/L,P. aeruginosa 106; [25],54.6% and 54.61%
same,1 log kill: Taniborbactam %ƒT > Ct 2 mg/L,P. aeruginosa 106; [26],62.71%
same,Stasis: Taniborbactam %ƒT > Ct 2 mg/L,P. aeruginosa 106; [26],37.74%
same,1 log kill: Taniborbactam %ƒT > Ct 4 mg/L,P. aeruginosa 106; [27],45.8%
same,Stasis: Taniborbactam %ƒT > Ct 4 mg/L,P. aeruginosa 106; [27],20.82%
same,"1 log kill: Taniborbactam total daily dose, mg/kg",P. aeruginosa 106; [28],293 mg/kg
same,Stasis: Taniborbactam total daily dose,P. aeruginosa 106; [28],105.00 mg/kg
same,1 log kill: Taniborbactam %ƒT > Ct 0.015 mg/L,P. aeruginosa 132; [29],100%
same,Stasis: Taniborbactam %ƒT > Ct 0.015 mg/L,P. aeruginosa 132; [29],100%
same,1 log kill: Taniborbactam %ƒT > Ct 0.03 mg/L,P. aeruginosa 132; [30],100%
same,Stasis: Taniborbactam %ƒT > Ct 0.03 mg/L,P. aeruginosa 132; [30],96.10%
same,1 log kill: Taniborbactam %ƒT > Ct 0.06 mg/L,P. aeruginosa 132; [31],88.19%
same,Stasis: Taniborbactam %ƒT > Ct 0.06 mg/L,P. aeruginosa 132; [31],79.2%
same,1 log kill: Taniborbactam %ƒT > Ct 0.125 mg/L,P. aeruginosa 132; [32],71.30%
same,Stasis: Taniborbactam %ƒT > Ct 0.125 mg/L,P. aeruginosa 132; [32],62.31%
same,1 log kill: Taniborbactam %ƒT > Ct 0.25 mg/L,P. aeruginosa 132; [33],54.41%
same,Stasis: Taniborbactam %ƒT > Ct 0.25 mg/L,P. aeruginosa 132; [33],45.1%
same,1 log kill: Taniborbactam %ƒT > Ct 0.5 mg/L,P. aeruginosa 132; [34],37.51%
same,Stasis: Taniborbactam %ƒT > Ct 0.5 mg/L,P. aeruginosa 132; [34],28.53%
same,1 log kill: Taniborbactam %ƒT > Ct 1 mg/L,P. aeruginosa 132; [35],20.6% and 20.62%
same,Stasis: Taniborbactam %ƒT > Ct 1 mg/L,P. aeruginosa 132; [35],11.6% and 11.63%
same,1 log kill: Taniborbactam %ƒT > Ct 2 mg/L,P. aeruginosa 132; [36],3.72%
same,Stasis: Taniborbactam %ƒT > Ct 2 mg/L,P. aeruginosa 132; [36],0%
same,1 log kill: Taniborbactam %ƒT > Ct 4 mg/L,P. aeruginosa 132; [37],0%
same,Stasis: Taniborbactam %ƒT > Ct 4 mg/L,P. aeruginosa 132; [37],0%
same,"1 log kill: Taniborbactam total daily dose, mg/kg",P. aeruginosa 132; [38],26 mg/kg
same,Stasis: Taniborbactam total daily dose,P. aeruginosa 132; [38],18.00 mg/kg
same,%fT > Ct for 1 log kill,[4],100%
same,%fT > Ct for stasis,[4],~50%
same,%fT > Ct for 1 log kill,P. aeruginosa isolates,~60%
same,%fT > Ct for stasis,P. aeruginosa isolates,~40%
same,fT > Ct 8 mg/L,[5],100%
same,Reduction of cefepime MICs (fold dilution),[6],2 fold
same,Cefepime MIC reduction,[7],≥ 2 fold
same,half-life,[8],10 h
